Where no end group is shown, it is not given here.
Legend:
MCMV [1] = format: cell-based, Murine Cytomegalovirus
Description: (§1) Murine Cytomegalovirus (MCMV) RM4503 was cultured in vitro in MEF 10.1 cells. The virus stock was titered using plaque assay (described below) and stored at −80° C. Human Cytomegalovirus (HCMV) TB40/E was obtained from (46, 47) and cultures in vitro in HFF cells. The virus stock was titered using plaque assay and stored at −80° C. HSV-1 and HSV-2 were cultured in vitro in VERO cells. The virus stock was titered using plaque assay and stored at −80° C.
(§2) Peptides were screened for their ability to reduce viral infection using a plaque reduction assay. Cells were cultured in 12-well (VERO) or 24-well culture plates (MEF 10.1 and HFF). When the cells reached ˜80% confluence the media was removed and the cells washed once with PBS before addition of peptide. As a control, cells were incubated with PBS alone. After a 30 min of incubation with peptide in PBS, the virus was added and incubated for another 90 min (HSV and HCMV) or 60 min (MCMV). Following virus incubation the peptide/virus mixture was removed and replaced with 0.75% carboxy-methyl cellulose (Sigma Aldrich, St. Louis, Mo.)+complete media (CMC) or 0.5% agarose (Lonza, Rockland, Me.) in complete media. The plates were incubated at 37° C. in 5% CO2 for 4 days when plaques began to develop, following which they were stained with Coomassie stain (AMRESCO, Solon, Ohio). Plaques were counted manually and data analyzed using Prism 5.0 (GraphPad Software, La Jolla, Calif.). Data were expressed as % plaques relative to the average number of plaques in the PBS-treated wells.
In the initial screening assays all peptides were tested at a single concentration (500 μg/ml) using a plaque-reduction assay, in which mouse embryonic fibroblasts were incubated with the peptides for 30 min prior to the addition of virus.
In the infectivity assays described above the peptide and virus were co-incubated with the cells. Therefore to ensure the peptide was not directly inactivating the virus, MCMV was incubated with 100 μM (˜20× the IC50) peptide at 37° C. for 1 h, diluted to an ineffective peptide concentration (1 μM) and fibroblast infection rates measured.
To determine at which stage of the MCMV entry cycle the peptide interferes, four different peptide treatment protocols were tested, 1) 30 min. prior to infection (pre-adsorption) 2) simultaneously with virus (during adsorption) 3) after letting the virus adsorb to the cells at 4° C. for lhr (post adsorption) or 4) after allowing the virus to fuse with the cell membrane at 37° C. for lhr (post fusion) (FIG. 3(B)).

MCMV [2] = assay: Interference of peptide mediated reduction by heparin (MCMV plaque reduction); format: cell-based, Murine Cytomegalovirus; conditions: peptide 100 μM pre-incubated with heparin 1 h at 37° C. before addition to cells
Description: Peptide GGGY-p5+14 (SEQ ID NO: 25) (at 100 μM) was pre-incubated with heparin sodium salt (Acros Organics, NJ) at different concentrations for 1 h at 37° C. Following which the heparin/peptide mix was added to the cells and incubated for 30 min at 37° C. Following the incubation, the supernatant was aspirated and cells washed once with PBS to remove unbound/excess heparin or peptide. The cells were subsequently infected with ˜100 pfu/well of MCMV. To test whether heparin treatment of cells interferes with virus infection, MEF 10.1 cells in a 24 well dish were pre-incubated with different concentrations of heparin for 1 hour and washed as described above. Following the pre-incubation infection was initiated as mentioned above. Finally to test the effect of heparin treatment on the infectivity of virus, MCMV was incubated with different concentration of heparin for lhr before infecting cells. For all these treatments, the virus was removed lhr post infection and cells overlaid with CMC. Plates were incubated for 4 days before staining and counting the plaques. Plaque reduction assay was performed as mentioned above.

MCMV [3] = assay: Enzymatic treatment of cells (heparinase / chondroitinase) followed by MCMV plaque reduction assay; format: cell-based, Murine Cytomegalovirus
Description: (§3) Heparinase I (cat. # H2519), Heparinase II (cat. # H6512), Heparinase III (cat. # H8891) and Chondroitinase ABC (cat. # C3667) were obtained from Sigma Aldrich (St. Louis, Mo.). MEF 10.1 cells in culture were treated with heparinase re-suspended in heparinase buffer (20 mM Tris-HCl, pH 7.5, 50 mM NaCl, 4 mM CaCl2, and 0.01% BSA) at a concentration of 1 U/ml or chondroitinase re-suspended in chondroitinase buffer (50 mM Tris, pH 8.0, 60 mM sodium acetate and 0.02% bovine serum albumin) at a concentration of 1 U/ml for 1 h. at 37° C. As a control, cells were treated with enzyme buffer alone. Following incubation the enzyme solution was removed and cells were washed once with PBS to remove excess enzyme. Subsequently the cells were treated with peptide or infected with virus. The data was collected and analyzed as described previously.

MEF 10.1 cells [4] = assay: Visualization of bound biotinylated peptide on fixed MEF cells (fluorescence); format: binding, Mouse; conditions: 1.6 μg/mL, streptavidin fluorescence
Description: Coverslips with fixed MEF cells prepared, washed in PBS and blocked with 1% BSA/PBS for 5 min. Following a PBS wash the nuclei were stained by using Hoechst (Life Technologies Molecular Probes, Grand Island, N.Y.) 1:100 in H2O— for 30 min at 37° C. Tissues were then blocked using a casein block solution (Scytek) for 5 min, AVIDIN/Biotin blocks (VECTOR, Burlingame, Calif.) for 20 min each at room temperature (RT) followed by a 5 min PBS wash. Biotinylated GGGY-p5+14 (SEQ ID NO: 25) or p5G (control) at 1.6 μg/mL in PBS was added and the tissues incubated overnight at 4° C. Following a PBS wash Alexa Fluor 594-conjugated streptavidin (Molecular Probes) was added at a 1:200 dilution in PBS for lhr at RT. Cells were then permeabilized by addition of 0.2% Triton X-100 (Sigma) in PBS for 10 min at RT and washed with a solution of 1% BSA in PBS for 30 min. The cells were then stained with Alexa Fluor 488-conjugated phalloidin (Molecular Probes) 1:100 dilution of stock in 1% BSA/PBS, for 45 min. at RT to visualize cytoskeleton. Slides were cover-slipped using a fluorescent mounting medium (Dako, Carpinteria, Calif.) to minimize photobleaching.

MEF 10.1 cells [5] = assay: Measuring amount of bound biotinylated peptide on MEF 10.1 cells (time resolved fluorescence); format: binding, Mouse
Description: as §3
MEF 10.1 Cells were grown in 24-well cell culture plates as described above. Each well was probed with 100 μL of biotinylated peptides at 1 μg/mL in cold DMEM/F12 with 0.1% BSA and incubated for one hour at 4° C. Following the incubation the cells were washed twice with ice cold PBS and fixed with 1.25% glutaraldehyde. Fixed samples were washed twice and stored in PBS for 24 hours. […] The plate was washed three times with PBS, enhancement solution added, and time resolved fluorescence measured on the Wallac Victor 3 (Perkin-Elmer).

HCMV = assay: Plaque reduction assay, HCMV infectivity in HFF cells; format: cell-based, Human Cytomegalovirus; conditions: 100 μM
Description: as §1
as §2, with “The plates were incubated at 37° C. in 5% CO2 for 4 days when plaques began to develop, following which they were stained with Coomassie stain (AMRESCO, Solon, Ohio).” left out

HSV-2 = assay: Plaque reduction assay, HSV-2 in VERO cells; format: cell-based, herpes simplex virus; conditions: 100 μM
Description: as §1
as §2, with “The plates were incubated at 37° C. in 5% CO2 for 4 days when plaques began to develop, following which they were stained with Coomassie stain (AMRESCO, Solon, Ohio).” left out

[6] = mouse, in vivo; cited from earlier work

In the case of “GGGYSKAQKAQAKQAKQAQKAQKAQAKQAKQAQKAQKAQAKQAKQ [GGGY-p5+14]”, the IC50 (MCMV [1]) is reported as 5.2 µM, the “reduction in infection (MCMV)” value (MCMV [1]; 10 μM) is reported as > 80% and the “inhibition of MCMV infection” value (MCMV [1]; 100 μM) is reported as “effectively inhibited”. The “inhibition of MCMV infection (plaque reduction)” value (MCMV [1]; 500 μg/ml, mouse embryonic fibroblasts incubated with peptide 30 min prior to virus) was > 90%, the “direct neutralizing effect on the virus” value (MCMV [1]; MCMV incubated with 100 μM peptide at 37° C. for 1 h, diluted to 1 μM) was “did not have any direct neutralizing effect on the virus itself” and the “plaque formation, peptide added after the adsorption or fusion phase of viral entry” value (MCMV [1]; post adsorption or post fusion) was “no significant reduction in plaque formation”. For the same sequence, the “infection (plaque formation), peptide added before or in conjunction with virus addition” value (MCMV [1]; pre-adsorption or during adsorption) was > 80%, the “concentrations giving significant reduction in infection” value (MCMV [1]; serial dilution of peptide, FIG. 1(B)) was > 5 µg/mL and the “effect of pre-incubation of peptide with heparin on inhibition of MCMV infection” value (MCMV [2]) was “reduced its ability to inhibit MCMV infection in a dose-dependent manner”. For the same sequence, the “effect of chondroitinase treatment of cells on the activity of the peptide” value (MCMV [3]; chondroitinase 1 U/ml) was “nor did it have any effect on the activity of the peptide”, the “reduction in MCMV infectivity, peptide added to heparinase treated cells” value (MCMV [3]; heparinase 1 U/ml plus peptide) was ~80% and the “binding to mouse fibroblasts in culture” value (MEF 10.1 cells [4]) was “bound mouse fibroblasts”. For the same sequence, the “reduction in the amount of bound peptide” value (MEF 10.1 cells [5]; cells treated with chondroitinase) was ~11%, the “reduction in the amount of bound peptide” value (MEF 10.1 cells [5]; cells treated with heparinase) was ~40% and the “reduction of infection (HCMV)” value (HCMV) was ~80%. For the same sequence, the “reduction of HSV 2 infection” value (HSV-2) was ~40% and the “peptide binding to GAGs expressed in healthy organs or tissues” value [6] was “no evidence of peptide binding to GAGs expressed in healthy organs or tissues”.

Source: patent publication US10308685B2, “Inhibitory peptides of viral infection” (UNIVERSITY OF TENNESSEE RESEARCH FOUNDATION, priority 2014, dated 2019)
